Reference: patent US11834414B2, “1-methyl-4-[(4-phenylphenyl)sulfonylmethyl]cyclohexyanol and 1-methyl-4-[[4-(2-pyridyl)phenyl]sulfonylmethyl]cyclohexanol compounds and their therapeutic use” (Modern Biosciences Limited, priority 2018, dated 2023)

How the values were obtained:
[1] = system: Thp1 human monocytic cells; assay: Thp1 Monocyte ATP Production Assay; format: cell-based; details: for IC50: Homo sapiens, THP-1, 24 h, Thp1 cells, 24 hour incubation, ATPLite, 9-point range 10 μM to 10 nM, mean of 2 independent experiments
In short: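 Cells plated at 112500/well in glucose-free RPMI-1640 with 1% FBS and exposed to compound for 24 h at 37 °C/5% CO2. ATP quantified by luciferase luminescence (ATPlite) and expressed as % of control viability. IC50 from 4-parameter fit, mean of two experiments.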

Rat hepatocyte stability = format: in vitro ADME; details: rat, pooled rat hepatocytes, 60 minute incubation; for hepatocyte CLint at 1 μM: read-out: Rat Clint (μL/min/million cells); for half-life at 1 μM: read-out: Rat t1/2
In short: (§1)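 Compounds (1 μM final, 0.1% DMSO, 0.9% acetonitrile) were incubated in duplicate with pooled rat or human hepatocytes at 37° C, sampled at 0–60 min and quenched with methanol. Remaining parent was measured by LC-MS/MS. Elimination rate constant came from the ln(concentration)–time slope, giving t1/2 and CLint scaled to hepatocyte concentration.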

CYP2C9 = CYP2C9 (Homo sapiens (Human), UniProt P11712); assay: Human Cytochrome P450 Inhibition Assay (Bactosomes); format: in vitro ADME; details: recombinant Bactosomes, 10 minutes, 37° C.
Chain of CYP2C9 (P11712 whole entry): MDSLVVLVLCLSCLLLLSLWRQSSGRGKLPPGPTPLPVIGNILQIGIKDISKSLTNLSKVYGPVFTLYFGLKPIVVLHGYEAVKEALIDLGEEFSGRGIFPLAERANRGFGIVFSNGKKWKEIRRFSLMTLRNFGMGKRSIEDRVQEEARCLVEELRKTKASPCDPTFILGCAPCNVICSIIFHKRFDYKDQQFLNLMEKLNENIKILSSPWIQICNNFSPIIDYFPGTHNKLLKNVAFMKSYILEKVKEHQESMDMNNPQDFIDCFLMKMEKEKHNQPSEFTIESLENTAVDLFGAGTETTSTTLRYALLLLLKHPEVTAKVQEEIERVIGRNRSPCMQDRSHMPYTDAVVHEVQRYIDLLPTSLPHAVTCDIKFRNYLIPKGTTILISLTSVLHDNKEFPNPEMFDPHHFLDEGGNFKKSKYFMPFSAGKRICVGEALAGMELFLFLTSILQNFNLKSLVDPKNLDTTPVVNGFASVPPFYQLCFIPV

[2] = system: collagen-induced arthritis in DBA/1j mice; assay: Mouse Collagen-Induced Arthritis; format: in vivo; details: 10 mg/kg/day, once daily for 14 days, arthritic index vs control
Experimental: Seven- to eight-week-old male DBA/1j mice were used for all procedures. Animals were housed in groups of 10, and were maintained at 21° C.±2° C. on a 12-hour light/dark cycle with food and water ad libitum. Complete Freund's adjuvant (CFA) was prepared by emulsifying bovine type II collagen at 4 mg/mL with a 4 mg/mL suspension of Mycobacterium tuberculosis H37Ra in Incomplete Freund's Adjuvant (IFA) (0.85 mL paraffin oil and 0.15 mL mannide monooleate) in a 1:1 (v/v) ratio. All mice were immunised subcutaneously with 200 μg of bovine type II collagen in CFA. 21 days later, all mice were immunised subcutaneously with 100 μg of bovine type II collagen in IFA. The mice started to develop signs and symptoms of arthritis following the ‘booster’ immunisation.
For macroscopic assessment of arthritis, the following signs were monitored in each paw of each mouse three times per week and summed to generate the Arthritic Index (AI) (the maximum AI for one animal is 16): • 0=no visible effects of arthritis. • 1=oedema and/or erythema of 1 digit. • 2=oedema and/or erythema of 2 digits. • 3=oedema and/or erythema of more than 2 digits. • 4=severe arthritis of entire paw and digits.
Animals were sorted into treatment groups with a mean arthritic index of 2.5 and then dosed once daily for 14 days with compound: by oral gavage for test compounds, or by subcutaneous injection at a dose of 10 mg/kg for the positive control, etanercept. After completion of the experiment, the mice were sacrificed.
The data were analysed by generating an average of the arthritic index across each treatment group. The mean arthritic index was then compared to the arthritic index of control (untreated) animals using the following formula to generate a percentage inhibition of disease.

[3] = system: cytochrome P450 (CYP450) enzymes
CYP3A4 = CYP3A4 (Homo sapiens (Human), UniProt P08684); assay: Human Cytochrome P450 Inhibition Assay (Bactosomes); format: in vitro ADME; details: recombinant Bactosomes, 10 minutes, 37° C.
Chain of CYP3A4 (P08684 whole entry): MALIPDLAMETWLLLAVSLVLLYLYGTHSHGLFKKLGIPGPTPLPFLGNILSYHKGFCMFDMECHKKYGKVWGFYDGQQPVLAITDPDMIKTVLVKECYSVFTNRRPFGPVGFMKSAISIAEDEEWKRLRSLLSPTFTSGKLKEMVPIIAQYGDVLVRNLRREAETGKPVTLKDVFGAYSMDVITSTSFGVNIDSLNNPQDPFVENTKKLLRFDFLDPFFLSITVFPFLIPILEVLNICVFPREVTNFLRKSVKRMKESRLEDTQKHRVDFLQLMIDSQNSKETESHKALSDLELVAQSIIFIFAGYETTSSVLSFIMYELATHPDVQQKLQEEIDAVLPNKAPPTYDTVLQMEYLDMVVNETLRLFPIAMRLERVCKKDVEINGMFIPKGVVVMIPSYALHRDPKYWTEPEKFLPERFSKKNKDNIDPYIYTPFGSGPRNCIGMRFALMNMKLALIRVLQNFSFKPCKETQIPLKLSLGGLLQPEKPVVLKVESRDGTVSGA

[4] = Human hepatocyte stability; format: in vitro ADME; details: human, pooled human hepatocytes, human hepatocytes, 1 μM, 60 minute incubation; for hepatocyte CLint at 1 μM: read-out: Human Clint (uL/min/million cells); for half-life at 1 μM: read-out: Human t1/2
In short: as §1

CYP1A2 = CYP1A2 (Homo sapiens (Human), UniProt P05177); assay: Human Cytochrome P450 Inhibition Assay (Bactosomes)
Chain of CYP1A2 (P05177 whole entry): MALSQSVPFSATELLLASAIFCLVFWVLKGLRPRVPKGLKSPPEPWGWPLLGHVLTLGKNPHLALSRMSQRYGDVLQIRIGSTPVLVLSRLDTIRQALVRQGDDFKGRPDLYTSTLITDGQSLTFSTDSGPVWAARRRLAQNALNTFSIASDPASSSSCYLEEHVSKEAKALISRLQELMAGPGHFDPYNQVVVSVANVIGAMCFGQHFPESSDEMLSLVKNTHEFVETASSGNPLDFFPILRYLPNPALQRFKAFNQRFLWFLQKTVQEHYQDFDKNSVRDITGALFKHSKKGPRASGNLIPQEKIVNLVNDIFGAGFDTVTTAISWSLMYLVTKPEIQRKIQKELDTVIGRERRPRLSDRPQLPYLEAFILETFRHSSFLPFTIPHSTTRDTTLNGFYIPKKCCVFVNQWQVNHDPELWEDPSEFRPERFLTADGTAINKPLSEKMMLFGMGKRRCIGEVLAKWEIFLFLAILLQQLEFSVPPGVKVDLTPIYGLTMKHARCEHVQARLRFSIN

human hepatocytes = assay: Human hepatocyte stability; format: in vitro ADME; details: hepatocyte stability, compared to the reference compounds
In short: as §1

SMILES | IC50 [1] | hepatocyte CLint at 1 μM (Rat hepatocyte stability) | half-life at 1 μM (Rat hepatocyte stability) | IC50 (CYP2C9) | % inhibition of disease [2] | drug-drug interaction liability, CYP450 inhibition profile (in words) [3] | IC50 (CYP3A4) | hepatocyte CLint at 1 μM [4] | half-life at 1 μM [4] | IC50 (CYP1A2) | metabolic stability (in words) (human hepatocytes) | potency in the Thp1 monocytic ATP assay (in words) ([1]; compared to the reference compounds)
C[C@]1(O)CC[C@@H](CS(=O)(=O)c2ccc(-c3ccc(C#N)cc3F)cc2)CC1 [CHMSA-01-A, 2-fluoro-4′-(((cis-4-hydroxy-4-methylcyclohexyl)methyl)sulfonyl)-[1,1′-biphenyl]-4-carbonitrile] | 0.7 µM | 12.4 µL/min/1e6 cells | 1.77 h | 39.4 µM | 63% | particularly good profile | > 50 µM | 3.7 µL/min/1e6 cells | 5.91 h | > 50 µM |  | 
C[C@]1(O)CC[C@@H](CS(=O)(=O)c2ccc(-c3ncc(F)cc3F)c(F)c2)CC1 [CHMSA-03-A, cis-4-(((4-(3,5-difluoropyridin-2-yl)-3-fluorophenyl)sulfonyl)methyl)-1-methylcyclohexan-1-ol] | 0.7 µM | 14.4 µL/min/1e6 cells | 1.52 h | 14.7 µM | 62% | particularly good profile | > 50 µM | < 3 µL/min/1e6 cells | > 7.67 h | > 50 µM | exceptionally good stability | 
C[C@]1(O)CC[C@@H](CS(=O)(=O)c2ccc(-c3ccc(C#N)cc3F)cc2C(F)(F)F)CC1 [CHMSA-02-A, 2-fluoro-4′-(((cis-4-hydroxy-4-methylcyclohexyl)methyl)sulfonyl)-3′-(trifluoromethyl)-[1,1′-biphenyl]-4-carbonitrile] | 0.1 µM | 102 µL/min/1e6 cells | 0.217 h | > 50 µM |  | particularly good profile | > 50 µM | < 3.3 µL/min/1e6 cells | > 6.87 h | > 50 µM | exceptionally good stability | excellent potency
C[C@]1(O)CC[C@H](NS(=O)(=O)c2ccc(-c3ccc(Cl)cc3C#N)cc2)CC1 [HMC-C-01-A, reference compound] | 0.63 µM | 188 µL/min/1e6 cells | 0.117 h | 21 µM | 40% |  | > 25 µM | 7.6 µL/min/1e6 cells | 2.57 h | 25 µM |  | 
